Source: paper PMC13274462, “Growth of Corynebacterium glutamicum on 5-oxo-L-proline (pyroglutamate) as a carbon and nitrogen source requires the PxpR-controlled pxpTABC genes” (Applied and Environmental Microbiology, 2026)

Biological target: T1, PxpR (Corynebacterium glutamicum, UniProt Q8NRP0)
T1 construct: gene Cgl1008; PxpR protein with a C-terminal Strep-tag-II (PxpR-Strep)
T1 sequence (Q8NRP0 11-227): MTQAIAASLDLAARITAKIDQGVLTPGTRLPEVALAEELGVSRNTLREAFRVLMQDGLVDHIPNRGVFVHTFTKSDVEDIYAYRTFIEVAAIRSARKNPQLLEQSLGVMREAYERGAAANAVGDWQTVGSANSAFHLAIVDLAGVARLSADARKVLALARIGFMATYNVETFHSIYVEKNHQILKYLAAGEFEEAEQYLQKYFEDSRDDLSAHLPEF
Test: isothermal titration calorimetry (ITC) with purified PxpR-Strep, […]°C, pH […]
Format: binding

`O=C1CC[C@@H](C(=O)O)N1` [5-OP, 5-oxo-L-proline] gave a Kd of 726 ± 23 nM.
